Assay results taken from patent US20200129476A1, “PARP Inhibitor in Combination with a Glucocorticoid and/or Ascorbic Acid and/or a Protein Growth Factor for the Treatment of Impaired Wound Healing” (AKRIBES BIOMEDICAL GMBH, priority 2017, published 2020).
“Also recorded” adds a separate entry of the source.

Legend:
[1] = system: primary human dermal fibroblasts (HDF); assay: Primary human dermal fibroblast (HDF) proliferation assay (2D), with or without wound exudate; format: cell-based; conditions: for cell proliferation under wound exudate-induced inhibition: FIG. 22, WE #43 and #78 used with veliparib; for HDF proliferation, PARP inhibitor plus PDGF: PARP inhibitor dose series + PDGF 20 ng/ml, WE #78 (FIG. 18); for enhancement of PARP inhibitor effect on fibroblast proliferation: added to PARP inhibitor titration
Method: (§1) Primary human dermal fibroblasts (HDF) were purchased from CELLnTEC, Bern. They were routinely grown in Dulbecco's modified Eagle's medium (DMEM) containing 10% FCS, 2 mM glutamine, and 100 U/ml penicillin/100 μg/ml streptomycin. Media, antibiotics, and glutamine were bought from Lonza. The cells were used at passage 5-15. Cells were trypsinized and seeded at 5000 cells/well in 200 μl into the inner wells of 96-well plates. The outer wells were loaded with sterile water. The cells were allowed to adhere overnight and then incubated for 72 hours at 37° C. under the following conditions: graded compound concentrations or 20 ng/ml PDGF-BB (Tonbo Biosciences) in the absence or presence of different dilutions of sterile-filtered WE in medium. For control samples, 200p1 medium was added instead of specific stimuli. Alternatively, the cells were seeded into 384-well plates at 2500 cells/well directly together with test compounds or growth factors and WE or medium in a total volume of […].
(§2) At the end of the 72-hour incubation period, supernatants were removed for the determination of IL-1ß, and the cells were fixed with 4% paraformaldehyde (Morphisto) for 15 minutes at room temperature and washed 3 times with PBS. A control plate was fixed after the overnight adherence of the cells (day 1) to determine the starting cell number.
Total cellular protein was determined as a measure of cell number by staining the fixed cells with sulforhodamine B (SRB, Sigma). A 0.4% SRB solution in 1% acetic acid was added to the wells for 30 minutes. The wells were then washed with 1 acetic acid until the wash solution remained colorless. After drying, the dye was eluted with 10 mM Tris.HCl, pH8.5, and absorbance was measured either at 550 or 492 nm for lower and higher cell densities, respectively. The average absorbance of the sample representing the day 1 starting cell number (for 96-well plates) was subtracted from the absorbance values of the WE-treated cells.
All experiments were carried out in triplicate for each sample and concentration, and means±standard deviation (SD) were used for the evaluation of the experiment. Results are expressed as percentage of control values for unstimulated cells.
(§3) Low molecular weight compounds (see list in Table 1) were dissolved in DMSO (Bioreagent for cell culture, Sigma) at 10 mM or 100 mM and diluted at least 1:1000 in medium for cellular assays (final DMSO concentration ≤0.1%).
(§4) Cells were incubated with compounds for 72 hours in proliferation assays and up to 8 days for FDM assay (refreshed after 4 days). When compounds were tested for their effect on WE stimulation, the incubation of cells with compounds was started and ended simultaneously with WE-incubation.

[2] = system: primary human dermal fibroblasts (HDF); assay: Fibroblast-derived matrix (FDM) formation assay (3D), with or without wound exudate; format: cell-based; conditions: for FDM formation, veliparib combined with glucocorticoid: WE #78, patient with diabetes, immunosuppression after kidney transplantation (FIG. 7)
Method: HDF cells were seeded at 5000 cells/well on day −3 into 96-well tissue culture plates (1250 cells/well for 384-well plates), which had been pre-coated for 1 hour at 37° C. with 0.2% gelatin solution (Sigma). When the cells reached confluence (=day 0), a matrix promoting supplement (vitamin C: 2-phospho-L-ascorbic acid trisodium salt, 100 μg/ml; Sigma) was added together with test samples containing PDGF-BB, TGF-ß1 or graded concentrations of compounds −/+WE as described for the HDF proliferation assay. After 4 days, medium was replaced by fresh vitamin C- and stimulus- as well as compound-containing medium, maintaining the conditions initiated on day 0. TGF-ß1 and PDGF-BB were included as positive controls to promote FDM formation and cell growth, respectively. After a total incubation time of 8 days, FDM production was measured in fixed cultures via SRB staining and evaluated as described above. In some cases, the experiment was stopped and evaluated already on day 4.
as §3, with “≤0.1%). Compounds were typically tested in half-logarithmic dilution series (1:3.33), starting at 10 μM or 100 μM as the highest compound concentration.” for “≤0.1%).”
as §4

[3] = system: IL-1ß; assay: IL-1ß secretion by HDF in the presence of wound exudate (ELISA); format: cell-based, human; conditions: FIG. 22; WE #43 and #78 used with veliparib
Method: as §1, §2
IL-1ß levels were determined with a commercial ELISA kit. The amount of IL-1ß contained in the wound exudate added to the cells was subtracted from the total IL-ß in the supernatants in order to determine the cytokine secreted by the cells.

[4] = system: alpha-smooth muscle actin (α-SMA); assay: Immunolocalization of alpha-smooth muscle actin in 2D fibroblast culture (myofibroblast differentiation); format: cell-based, human; conditions: TGF-ß 20 ng/ml
Method: as §1, with “The cells were allowed to adhere overnight and then incubated for 72 hours at 37° C. under the following conditions: graded compound concentrations or 20 ng/ml PDGF-BB (Tonbo Biosciences) in the absence or presence of different dilutions of sterile-filtered WE in medium.” left out
After fixation with paraformaldehyde, the cells were incubated for 1 hour at room temperature with a monoclonal mouse-anti-human antibody against alpha-smooth muscle actin (α-SMA) from e-Bioscience, washed 3 times with PBS and developed with an Alexa Fluor-labelled donkey-anti-mouse IgG (Molecular Probes). The cells were washed 3 times with PBS and examined in a Zeiss ZEISS Observer.Z1 microscope, using the software AxioVision 48.

[5] = presence of WE #78 (diabetic patient)
[6] = presence of wound exudate (WE) of patients, several or unspecified WE
[7] = absence of wound exudate (normal medium)
[8] = presence of ⅔ of the wound exudates tested

Oc1cccc2c(O)nccc12 [1,5-IQD, 1,5-Isoquinolinediol]
fibroblast (HDF) proliferation ([1]; presence of WE #43): less active or inactive | fibroblast (HDF) proliferation [1, 5]: less active or inactive

NC(=O)c1cccc(N)c1 [3-AB, 3-Aminobenzamide]
fibroblast (HDF) proliferation ([1]; presence of WE #43): less active or inactive | fibroblast (HDF) proliferation [1, 5]: less active or inactive

CN(C)Cc1ccc(-c2nc3cccc4c3n2CCNC4=O)cc1 [AG-14361]
cell proliferation under wound exudate-induced inhibition [1]: enhanced cell proliferation | fibroblast-derived matrix (FDM) formation ([2]; presence of WE #78 (FIG. 9)): strong positive effect | IL-1ß secretion induced by wound exudate [3]: reducing IL-1ß secretion

COC1CCN(C(=O)c2cc(Cc3n[nH]c(=O)c4ccccc34)ccc2F)CC1 [AZD-2461]
cell proliferation under wound exudate-induced inhibition [1]: enhanced cell proliferation | fibroblast-derived matrix (FDM) formation ([2]; presence of WE #78 (FIG. 9)): strong positive effect | IL-1ß secretion induced by wound exudate [3]: reducing IL-1ß secretion

CN(C)CC(=O)Nc1ccc2[nH]c(=O)c3ccccc3c2c1.Cl [PJ-34, N-(6-Oxo-5,6-dihydro-phenanthridin-2-yl)-N,N-dimethylacetamide.HCl]
fibroblast (HDF) proliferation ([1]; presence of WE #43): less active or inactive | fibroblast (HDF) proliferation [1, 5]: less active or inactive

C[C@H]1C[C@H]2[C@@H]3CCC4=CC(=O)C=C[C@]4(C)[C@@]3(Cl)[C@@H](O)C[C@]2(C)[C@@]1(O)C(=O)CO [beclomethasone]
fibroblast (HDF) proliferation [1, 6]: Qualitatively identical results

CC1(COc2ccc3c(c2)ncn3-c2ccc3cccc(N4CCC(N)CC4)c3n2)COC1 [crenolanib, Crenolanib]
effect on PDGF-enhanced proliferation ([1]; crenolanib 1 μM, PDGF 20 ng/ml, absence of WE (FIG. 19)): completely abrogated | fibroblast (HDF) proliferation [1, 5]: without any effect

C[C@@H]1C[C@H]2[C@@H]3C[C@H](F)C4=CC(=O)C(Cl)=C[C@]4(C)[C@@]3(F)[C@@H](O)C[C@]2(C)[C@@]1(O)C(=O)CO [halomethasone]
fibroblast (HDF) proliferation [1, 6]: Qualitatively identical results

C[C@]12CCC(=O)C=C1CC[C@@H]1[C@@H]2[C@@H](O)C[C@@]2(C)[C@H]1CC[C@]2(O)C(=O)CO [hydrocortisone, Hydrocortisone]
fibroblast (HDF) proliferation [1, 6]: Qualitatively identical results; also recorded: effect was confirmed

O=C(c1cc(Cc2n[nH]c(=O)c3ccccc23)ccc1F)N1CCN(C(=O)C2CC2)CC1 [olaparib]
cell proliferation under wound exudate-induced inhibition [1]: enhanced cell proliferation | HDF proliferation, PARP inhibitor plus PDGF [1]: even further enhanced by the addition of PDGF | fibroblast (HDF) proliferation [1, 5]: dose-dependent increase of HDF proliferation | fibroblast-derived matrix (FDM) formation ([2]; presence of WE #78 (FIG. 9)): strong positive effect | IL-1ß secretion induced by wound exudate [3]: reducing IL-1ß secretion

C[C@]12C=CC(=O)C=C1CC[C@@H]1[C@@H]2[C@@H](O)C[C@@]2(C)[C@H]1CC[C@]2(O)C(=O)CO [prednisolone, Prednisolone]
fibroblast (HDF) proliferation [1, 6]: Qualitatively identical results; also recorded: effect was confirmed

C[C@]12C=CC(=O)C=C1CC[C@@H]1[C@@H]2[C@@H](O)C[C@@]2(C)[C@H]1CC[C@]2(O)C(=O)CO [prelone]
fibroblast (HDF) proliferation [1, 6]: Qualitatively identical results

CNCc1ccc(-c2[nH]c3cc(F)cc4c3c2CCNC4=O)cc1 [rucaparib]
cell proliferation under wound exudate-induced inhibition [1]: enhanced cell proliferation | HDF proliferation, PARP inhibitor plus PDGF [1]: even further enhanced by the addition of PDGF | fibroblast (HDF) proliferation [1, 5]: dose-dependent increase of HDF proliferation | fibroblast-derived matrix (FDM) formation ([2]; presence of WE #78 (FIG. 9)): strong positive effect | IL-1ß secretion induced by wound exudate [3]: reducing IL-1ß secretion

O=C1O[C@H]([C@@H](O)CO)C(O)=C1O [vitamin C, ascorbic acid]
fibroblast (HDF) proliferation [1, 7]: enhances HDF proliferation/ECM formation; also recorded: enhances both fibroblast proliferation | enhancement of PARP inhibitor effect on fibroblast proliferation ([1]; WE #43, different patient (FIG. 15)): strong and consistent synergistic effect could be confirmed; also recorded: synergistically enhance the PARP inhibitor compound effects | enhancement of PARP inhibitor effect on fibroblast proliferation ([1]; dexamethasone 3 nM, vitamin C 100 μg/ml, WE #78 (FIG. 14)): enhance the positive enhancing effect of the PARP antagonists; also recorded: synergistically enhance the PARP inhibitor compound effects | fibroblast (HDF) proliferation [1, 8]: no effect on HDF proliferation/ECM formation; also recorded: no effect on fibroblast proliferation in the 2D assay | fibroblast-derived matrix (FDM/ECM) formation ([2]; absence of wound exudate): enhances both fibroblast proliferation in the fibroblast proliferation assay (also called 2D assay) and fibroblast-derived matrix (FDM) formation | fibroblast-derived matrix (FDM) formation [2, 8]: no effect on fibroblast proliferation in the 2D assay or fibroblast-derived matrix (FDM) formation in the 3D assay

Medroxyprogesterone
fibroblast (HDF) proliferation [1, 6]: Qualitatively identical results; also recorded: surprisingly enhances HDF proliferation and ECM formation; also recorded: effect was confirmed | FDM formation, veliparib combined with glucocorticoid [2]: enhance the effect of veliparib on rescuing fibroblast-derived matrix (FDM) formation after wound exudate treatment | FDM formation, veliparib combined with glucocorticoid ([2]; listed as MED): enhance the effect of veliparib on rescuing FDM formation after WE treatment | fibroblast-derived matrix (FDM/ECM) formation ([2]; presence of wound exudate, WE not specified (FIG. 6: microscopy)): surprisingly enhances HDF proliferation and ECM formation

TGF-ß: Transforming growth factor beta, protein growth factor
staining for α-SMA ([4]; absence of WE, veliparib 10 μM): increased the staining for the myofibroblast marker alpha-smooth muscle actin (α-SMA) | staining for α-SMA ([4]; presence of WE #78): does not induce α-SMA on its own; also recorded: did not induce α-SMA on its own

B1: PDGF: Platelet-derived growth factor, protein growth factor (Tonbo Biosciences) (protein, UniProt P01127 82-190, looked up)
Platelet-derived growth …: SLGSLTIAEPAMIAECKTRTEVFEISRRLIDRTNANFLVWPPCVEVQRCSGCCNNRNVQCRPTQVQLRPVQVRKIEIVRKKPIFKKATVTLEDHLACKCETVAAARPVT
modifications: PDGF-BB homodimer
HDF proliferation, PDGF added to talazoparib ([1]; PDGF 20 ng/ml + talazoparib 0.3 μM, WE #78 (FIG. 19)): further enhanced this recovery | fibroblast (HDF) proliferation [1, 7]: induces HDF proliferation; also recorded: enhances proliferation | fibroblast (HDF) proliferation [1, 5]: has no effect; also recorded: inactive; also recorded: without any effect
